Test results taken from patent US20240123022A1, “A STABLE ANTI-ANGIOGENIC AND ANTI-INFLAMMATORY PHARMACEUTICAL FORMULATION AND PHARMACEUTICAL COMBINATION FOR TREATMENT AND PREVENTION OF PSORIASIS” (priority 2021, published 2024).

Tested on: IMQ induced psoriasis mouse model
Assay: Proof of concept efficacy study, SC and topical route, IMQ-induced psoriasis mice model
Assay type: in vivo, BALB/c mice
Procedure: The study objective was to validate the efficacy of IS 217 through Parental route and to study the efficacy of 1% IS 217 Cream Formulation through topically and to fix dose levels and treatment mode for further proof of concept studies and included with SC dose ([…] and 1.2 mg/kg) as proof of concept studies.
The study was conducted to evaluate efficacy of test compound IS217 (topical and subcutaneous route) on IMQ induced psoriasis mouse model.
Test items: IS217 cream formulation (topical treatment) and IS217 powder vials (subcutaneous treatment) along with placebo were provided.
Standard Drugs: 1.0.01% Batamethasone cream (Betnovate®); 100 mg/4 ml bevacuzimab (Avastin®)
Study animals: 8-9 weeks old male BALB/c mice were used for the study.
Treatment period was from day 1 to day 14. IMQ cream application: 5% IMQ cream, 65 mg was applied on shaved back and 5 mg on each ear during study period. Treatment regimen: treatment to be given twice a day-test drug high dose. 2-hour difference was taken between application of IMQ and application of test drug. 8-hour difference was taken between second application of test drug.
Required quantity of IS217 compounds was weighed on Sartorius weighing balance. Weighed amount was dissolved in 10% Propylene glycol.
• IMQ (Imigod, Glenmark pharmaceuticals) was weighed every day prior to application. • 65 mg of 5% IMQ cream was applied on shaved back of animals with help of spatula. 5 mg IMQ cream was applied on each ear of mouse. • IMQ application was done every day for 14 days and on day 15 studies were terminated. (Except for group 4 and group 5) • Group 4 was terminated on day 17 (post 14 days of treatment) • Group 5 was terminated on day 21 (post 14 days of treatment) • Group 4 and 5 received similar duration of test formulation as per group 3. • Group 4 received 17 days IMQ application, group 5 received 20 days IMQ application.
• Treatment to all the groups were done two hours post IMQ cream application • Formulation for topical application were weighted daily on Sartorius balance • Formulation for SC treatment was prepared fresh every day as per procedure mentioned above. • Standard drug Betamethasone was weighed daily and applied topically to respective treatment group • Bevacizumab was prepared fresh at the time of dosing. • All the treatments were given as per study design

H-FAKKFAKKFK-OH [IS217, H-Phe-Ala-Lys-Lys-Phe-Ala-Lys-Lys-Phe-Lys-OH]
only epidermal hyperplasia (skin) (0.6 mg/kg SC): reduced
IL-17 level in ear, skin, and serum matrix (0.6 mg/kg and 1.2 mg/kg SC): significant decrease
TNF-α in ear homogenates samples (0.6 mg/kg and 1.2 mg/kg SC): decreased
ear thickness (0.6 mg/kg and 1.2 mg/kg SC): significantly decreased
overall efficacy versus the standard drug (Bevacizumab) (0.6 mg/kg and 1.2 mg/kg SC): comparable
psoriatic score, ear weight (0.6 mg/kg and 1.2 mg/kg SC): significant decrease
scaling, erythema and skin thickness (0.6 mg/kg and 1.2 mg/kg SC): decrease
Epidermal hyperplasia, parakeratosis, leukocyte infiltration (0.6 mg/kg and 1.2 mg/kg, vs vehicle): significantly decreased
epidermal hyperplasia, parakeratosis in skin (1.2 mg/kg SC): reduced
spleen weight (SC administration): Decrease
